Data published in ChEMBL document CHEMBL3108750, “Solution structure of a sponge-derived cystine knot peptide and its notable stability” (J Nat Prod, 2014).
Positions of bridges follow the written chain, without caps; N, C: chain ends. Residues, ends and D or L forms follow the SMILES beside them.

Assays:
[1] = Cytotoxicity against human MCF10A cells assessed as cell viability up to 50 uM after 48 hrs by MTT assay; assay type: cell-based; settings: mcf-10a
[2] = Cytotoxicity against human HK2 cells assessed as cell viability up to 50 uM after 48 hrs by MTT assay; assay type: cell-based; settings: hk-2, 48 h

For `CC[C@H](C)[C@H](NC(=O)[C@@H](NC(=O)[C@H](Cc1ccc(O)cc1)NC(=O)[C@@H]1CSSC[C@@H]2NC(=O)[C@@H]3CCCN3C(=O)[C@H](CC(N)=O)NC(=O)[C@H](Cc3ccccc3)NC(=O)[C@H](CCC(=O)O)NC(=O)[C@H](C(C)C)NC(=O)[C@H](CC(=O)O)NC(=O)[C@@H]3CSSC[C@H](NC(=O)[C@H]([C@@H](C)O)NC(=O)[C@H](CC(C)C)NC(=O)[C@@H]4CCCN4C(=O)[C@@H]4CCCN4C(=O)[C@H](CSSC[C@H](N)C(=O)N4CCC[C@H]4C(=O)NCC(=O)N[C@@H](CCC(=O)O)C(=O)NCC(=O)N[C@@H](CCC(=O)O)C(=O)N[C@@H](CCC(N)=O)C(=O)N3)NC2=O)C(=O)N[C@@H]([C@@H](C)CC)C(=O)N2CCC[C@H]2C(=O)NCC(=O)N[C@@H](CC(=O)O)C(=O)N2CCC[C@H]2C(=O)N[C@@H](Cc2ccc(O)cc2)C(=O)NCC(=O)N[C@@H]([C@@H](C)CC)C(=O)N1)[C@@H](C)CC)C(=O)O` (H-CPGEGEQCDVEFNPCCPPLTCIPGDPYGICYII-OH; disulfide 1-16, 8-21, 15-30), the Activity [1] was “Non-toxic” and the Activity [2] was “Non-toxic”.
